Our source for the IC50 values is patent US10457637B2, “Benzenesulfonamide derivatives as inverse agonists of retinoid-related orphan receptor gamma (RORγ(T))” (GALDERMA RESEARCH & DEVELOPMENT, priority 2014, dated 2019).

Some results are limits rather than exact numbers.

The test deals with ROR gamma ligand-binding domain (hRORg) (Homo sapiens (Human), UniProt P51449). Put plainly: GAL4-RORγ transactivation (luciferase reporter, HG5LN HeLa line). The test is classed as cell-based. Particulars: 18 hours incubation. The source says: GAL4-RORγ Transactivation
Chain of ROR gamma ligand-binding domain (hRORg) (P51449 269-508): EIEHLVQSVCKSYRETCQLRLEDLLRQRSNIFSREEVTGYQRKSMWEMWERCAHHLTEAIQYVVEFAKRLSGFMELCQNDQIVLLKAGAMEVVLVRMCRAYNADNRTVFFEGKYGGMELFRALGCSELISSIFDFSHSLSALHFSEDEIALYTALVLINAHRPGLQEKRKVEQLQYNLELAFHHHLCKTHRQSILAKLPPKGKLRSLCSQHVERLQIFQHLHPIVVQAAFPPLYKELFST
The RORγ transactivation model was developed from the line HG5LN, which is a HeLa line that stably expresses a luciferase reporter gene controlled by a pentamer of the GAL4 recognition domain of yeast and of a β-globin promoter. The HG5LN line was stably transfected by the DNA-binding domain (DBD) of GAL4 fused to the ROR gamma ligand-binding domain (LBD). Molecules that inhibit the ROR gamma constitutive activity reduce the luciferase expression, thus leading to a reduction in the emitted luminescence.
The cells are seeded in 384-well plates (5000 cells in 45 μL/well of culture medium containing 10% fetal calf serum) and incubated for 4 hours at 37° C., 5% CO2. 5 μL of the test molecules (compounds described in the tables described above) are then added to each well and the plates are incubated for 18 hours at a temperature of 37° C. under 5% of CO2. 20 μL of luciferase substrate (Promega) are added to each well and the luminescence emitted is read by a microplate reader.
The luminescence units (“RLU”) are normalized by positive controls (“POS” containing a saturated concentration of benzenesulfonamide, N-(2,2,2-trifluoroethyl)-N-[4-[2,2,2-trifluoro-1-hydroxy-1-(trifluoromethyl)ethyl]phenyl]) and negative controls (“NEG” containing DMSO): % inhibition=((RLU−NEG)*100)/(POS−NEG). The IC50 values are calculated from a 4-parameter logistic model using the XLFit software (IDBS).
(In general: In a reporter assay the amount or activity of a reporter protein is the signal.)

Usually IC50 stands for the midpoint of a concentration-inhibition curve. Low readings indicate greater potency, high ones weaker potency.

For the compound `CCc1ccc(N(CC(C)C)S(=O)(=O)c2ccc(NC[C@@H]3CNC(=O)O3)c(S(C)(=N)=O)c2)cc1` (stereo partly drawn) [compound 105, N-(4-ethylphenyl)-N-isobutyl-3-(S-methylsulfonimidoyl)-4-((((R)-2-oxooxazolidin-5-yl)methyl)amino)benzenesulfonamide], the IC50 was > 1000 nM.

Regarding `CCc1ccc(N(CC(C)C)S(=O)(=O)c2ccc3c(c2)S(=N)(=O)CN3CC2CCOCC2)cc1` (stereo not drawn) [compound 76, 1-imino-1-oxo-3-(tetrahydropyran-4-ylmethyl)-2,3-dihydro-1H-1λ^6-benzothiazole-6-sulfonic acid (4-ethylphenyl)isobutylamide], the IC50 was > 1000 nM.

Consider `CCc1ccc(N(CC(C)C)S(=O)(=O)c2ccc(OCc3ccc(F)cc3F)c(S(C)(=N)=O)c2)cc1` (stereo not drawn) [compound 45, 4-((2,4-difluorobenzyl)oxy)-N-(4-ethylphenyl)-N-isobutyl-3-(S-methylsulfonimidoyl)benzenesulfonamide], for which the IC50 is > 1000 nM.

For the compound `CCc1ccc(N(CC(C)C)S(=O)(=O)c2ccc(N3CC4(C3)CS(=O)(=O)C4)c(S(C)(=N)=O)c2)cc1` (stereo not drawn) [compound 113, 4-(2,2-dioxido-2-thia-6-azaspiro[3.3]heptan-6-yl)-N-(4-ethylphenyl)-N-isobutyl-3-(S-methylsulfonimidoyl)benzenesulfonamide], the IC50 lay within 100 to 1000 nM.

For `CCc1ccc(N(CC(C)C)S(=O)(=O)c2ccc(NCC3CCOCC3)c(S(N)(=O)=O)c2)cc1` [compound 67, 4-[(tetrahydropyran-4-ylmethyl)amino]benzene-1,3-disulfonic acid 3-amide 1-[(4-ethylphenyl)isobutylamide]], the IC50 was 100 to 1000 nM.

Consider `CCc1ccc(N(CC(C)C)S(=O)(=O)c2ccc(OC[C@H]3CNC(=O)O3)c(S(C)(=N)=O)c2)cc1` (stereo partly drawn) [compound 79, N-(4-ethylphenyl)-N-isobutyl-3-(S-methylsulfonimidoyl)-4-(((R)-2-oxooxazolidin-5-yl)methoxy)benzenesulfonamide], for which the half-inhibitory concentration (IC50) is > 1000 nM.

For the compound `CCc1ccc(N(CC(C)C)S(=O)(=O)c2ccc(OCC3CCNCC3)c(S(C)(=N)=O)c2)cc1` (stereo not drawn) [compound 49, N-(4-ethylphenyl)-N-isobutyl-3-(S-methylsulfonimidoyl)-4-(piperidin-4-ylmethoxy)benzenesulfonamide], the IC50 was > 1000 nM.

For the compound `CCc1ccc(N(CC(C)C)S(=O)(=O)c2ccc(NCC3CNC(=O)C3)c(S(C)(=N)=O)c2)cc1` (stereo not drawn) [compound 59, N-(4-ethylphenyl)-N-isobutyl-3-(S-methylsulfonimidoyl)-4-(((5-oxopyrrolidin-3-yl)methyl)amino)benzenesulfonamide], the IC50 lay in the range of 100 to 1000 nM.

Turning to `CCc1ccc(N(CC(C)C)S(=O)(=O)c2ccc(OCC3CCOCC3)c([S+]([O-])CC)c2)cc1` (stereo not drawn) [compound 22, ethanesulfinyl-N-(4-ethylphenyl)-N-isobutyl-4-(tetrahydropyran-4-ylmethoxy)benzenesulfonamide], the half-maximal inhibitory concentration (IC50) is 100 to 1000 nM.

As for `CCc1ccc(N(CC(C)C)S(=O)(=O)c2ccc(NCc3nn[nH]n3)c(S(C)(=N)=O)c2)cc1` (stereo not drawn) [compound 118, 4-(((2H-tetrazol-5-yl)methyl)amino)-N-(4-ethylphenyl)-N-isobutyl-3-(S-methylsulfonimidoyl)benzenesulfonamide], the IC50 was > 1000 nM.

Take `CCc1ccc(N(CC(C)C)S(=O)(=O)c2ccc(N3C[C@H]4C[C@@H]3CO4)c(S(C)(=N)=O)c2)cc1` (stereo partly drawn) [compound 115, 4-((1R,4R)-2-oxa-5-azabicyclo[2.2.1]heptan-5-yl)-N-(4-ethylphenyl)-N-isobutyl-3-(S-methylsulfonimidoyl)benzenesulfonamide]: the IC50 lay in the range of 100 to 1000 nM.

As to `CCc1ccc(N(CC(C)C)S(=O)(=O)c2ccc(NCC3CCN(C(C)=O)C3)c(S(C)(=N)=O)c2)cc1` (stereo not drawn) [compound 100, 4-(((1-acetylpyrrolidin-3-yl)methyl)amino)-N-(4-ethylphenyl)-N-isobutyl-3-(S-methylsulfonimidoyl)benzenesulfonamide], the IC50 is > 1000 nM.
